# Results as given in US20130204033A1, “ANTIPROLIFERATIVE COMPOUNDS, CONJUGATES THEREOF, METHODS THEREFOR, AND USES THEREOF” (Medarex, Inc., priority 2009, published 2013).
# Legend:
# Format in all cases: cell-based, human
# OVCAR8/Adr = test: ATP luminescence proliferation assay, OVCAR8/Adr; settings: Homo sapiens, OVCAR-8, 48 h incubation period, read-out: EC50 against the OVACAR8/Adr cell line
# Method: (§1) This example generally describes the procedures used to assay the antiproliferative activity of compounds of this invention or their conjugates. Human tumor cell lines were obtained from the American Type Culture Collection (ATCC), P.O. Box 1549, Manassas, Va. 20108, USA, and cultured according to instruction from the ATCC. Cells were seeded at 1.0×10^3 or 1.0×10^4 cells/well in 96-well plates for 3 h for ATP assays or ^3H thymidine assays, respectively. 1:3 serial dilutions of free (unconjugated) compounds or their conjugates were added to the wells. Plates were allowed to incubate for 24 to 72 h. The ^3H thymidine plates were pulsed with 1.0 μCi of ^3H-thymidine per well for the last 24 hours of the total incubation period, harvested, and read on a Top Count Scintillation Counter (Packard Instruments, Meriden, Conn.). ATP levels in the ATP plates were measured using the […]-GLO® Luminescent Cell Viability kit following the manufacturer's manual and read on a GLOMAX® 20/20 luminometer (both from Promega, Madison, Wis., USA). The EC50 values—the concentration at which an agent inhibits or reduces cell proliferation by 50% —were determined using PRISM™ software, version 4.0 (GraphPad Software, La Jolla, Calif., USA).
# (§2) Using the ^3H thymidine or the ATP luminescence assay, or both, the activities of compounds of this invention were assayed against the following cancer cell lines: HCT-15 (colorectal cancer, multi-drug resistant (MDR)); Hep3B (liver cancer); LNCaP (prostate cancer, androgen receptor positive (AR^+)); MDA-MB-231 (breast cancer, estrogen receptor, progesterone receptor, and Her2 negative (triple negative)); A2058 (melanoma); U-87 MG (glioblastoma); NCI-H460 (NSCLC); A549 (NSCLC); HPAC (pancreatic cancer, primary); PC3 (prostate cancer, AR); BT474 (breast cancer, Her2 highly positive (Her2hi)); SKOV3 (ovarian cancer, Her2hi); 786-O (renal cancer); UO-31 (renal cancer, MDR); NCI-H740 (SCLC); DMS53 (SCLC); SK-BR3 (breast cancer, Her2hi); ZR-75 (breast cancer, estrogen receptor positive); OVCAR3 (ovarian cancer); HL-60 (APL); OVCAR8/Adr (ovarian cancer, MDR); CEM-Cl (ALL); Nomo-1 (AML); RPMI-8226 (MM)); Raji (lymphoma); SW-480 (colorectal cancer, metastatic); SW-620 (colorectal cancer); and H226 (lung cancer). (Not all compounds were assayed against all cell lines.)
# (§3) Table 3 provides the data for the ATP luminescence proliferation assays, with an incubation period of 48, 72, or 96 h, as noted.
# OVCAR3 = test: ATP luminescence proliferation assay, OVCAR3; settings: Homo sapiens, OVCAR-3, 72 h, read-out: EC50 OVCAR3 (72 h), ATP luminescence, OVCAR3, 72 h incubation
# Method: as §1, §2, §3
# H226 = test: ATP luminescence proliferation assay, H226; settings: Homo sapiens, NCI-H226, 72 h incubation period, read-out: EC50 against the H226 cell line
# Method: as §1, with “The EC50 values—the concentration at which an agent inhibits or reduces cell proliferation by 50% —were determined using PRISM™ software, version 4.0 (GraphPad Software, La Jolla, Calif., USA).” left out
# as §2, with “(Not all compounds were assayed against all cell lines.)” left out
# 786-O = test: ATP luminescence proliferation assay, 786-O; settings: Homo sapiens, 786-0, 72 h, read-out: EC50 786-O (72 h), ATP luminescence, 786-O, 72 h incubation
# Method: as §1, §2
# (§4) FIGS. 12a and 12b show illustrative plots for ATP luminescence proliferation assays for a second set of compounds of this invention, against HL-60 and 786-O cells, respectively, with an incubation period of 72 h. FIGS. 12c and 12d show the plots for ^3H thymidine proliferation assays for the same set of compounds, again against HL-60 and 786-O cells, respectively, with a 72 h incubation period. In each instance, doxorubicin was used as a comparative compound.
# as §3
# HL-60 = test: ATP luminescence proliferation assay, HL-60; settings: Homo sapiens, HL-60, 48 h, read-out: EC50 HL-60 (48 h), ATP luminescence, HL-60, 48 h incubation
# Method: as §1, §2, §4, §3
# [1] = test system: 786-O renal cancer cells, which are CD70 positive; test: In vitro activity of conjugates, 3H thymidine proliferation assay, 786-O; settings: 72 h incubation
# Method: as §1
# The incubation period was 72 h. The EC50 values extracted from the curves of FIG. 13 are given in Table 4, along data from other experiments. […]
Compound,EC50 (OVCAR8/Adr) [nM],EC50 (OVCAR3) [nM],EC50 (H226) [nM],EC50 (786-O) [nM],EC50 (HL-60) [nM],EC50 [1] [nM]
CCCN(C(=O)[C@@H](NC(=O)[C@H]1CCCCN1C)[C@@H](C)CC)[C@H](C[C@@H](OC(C)=O)c1nc(C(=O)N[C@@H](Cc2ccc(N)cc2)CC(C)C(=O)OCC)cs1)C(C)C (stereo partly drawn) [Compound 112],12,0.049,0.67 to 1.16,0.67,0.05 to 0.09,
diphtheria toxin [DTX],,,,,,104
